From patent US12195760B2, “Method for enhancing proliferation capability of stem cells using ethionamide” (SAMSUNG LIFE PUBLIC WELFARE FOUNDATION, priority 2016, dated 2025) come the findings set out here.

Test [1] concerns human umbilical cord mesenchymal stem cells. How it is done:
After 72 hours, cell proliferation analysis was performed. For this purpose, a BrdU cell proliferation assay kit (Cell Signaling Technology, USA) using 5-bromo-2′-deoxyuridine (BrdU) bound during DNA synthesis in cells was used. Specifically, BrdU was added to cells, and reacted for 24 hours. Thereafter, the cells were immobilized, and DNA was denatured. Then, the cells were treated with an anti-BrdU antibody, and then reacted with a tetramethylbenzidine (TMB) substrate using a secondary antibody conjugated with horse-radish peroxidase (HRP), and an absorbance value was measured at 450 nm using an ELISA reader.

Test [2] shares this test system. As to conditions: ethionamide-primed MSCs compared to control not treated. How it is done:
More specifically, the human umbilical cord mesenchymal stem cells (2×10^5 cells) were equally divided into 1.5 ml microtubes, treated with 100 μL of phosphate-buffered saline (PBS) containing 2% FBS, treated with an antibody bound to fluorescein isothiocyanate (FITC), phycoerythrin (PE), or allophycocyanin (APC), and then reacted at room temperature for 20 minutes. […] After the reaction, an antibody reaction was neutralized with PBS containing 2% FBS, and it was then determined whether the positive and negative markers were expressed using a flow cytometer.

For test [3] the test system is unchanged. Conditions: ethionamide-primed MSCs compared to control not treated; Oil red O, Alizarin Red S, Safranin-O; FIGS. 3A to 3C.
Description: Specifically, to induce differentiation into adipocytes or osteocytes, human umbilical cord mesenchymal stem cells (1×10^5 cells) cultured in a medium treated with ethionamide were seeded in a 6-well plate, and the differentiation was induced for approximately 3 weeks using adipogenesis/osteogenesis differentiation kits (Gibco, USA) while replacing the medium with a fresh medium twice a week. Thereafter, the cells differentiated into adipocytes and osteocytes were stained with Oil red O and Alizarin Red S to check whether the cells were differentiated into adipocytes and osteocytes. Quantification of the adipocytes was carried out by completely removing the medium from differentiation culture containers, drying the culture containers, putting 100% isopropanol into the culture containers, culturing the cells at room temperature for 10 minutes, thoroughly mixing the differentiated cells with 100% isopropanol, and measuring an absorbance at 500 nm to quantify the degree of differentiation. Quantification of the osteocytes was carried out by quantifying the degree of differentiation using an Alizarin Red S staining quantification assay kit (ScienCell, USA). […]

Regarding `CCc1cc(C(N)=S)ccn1` [ethionamide, 2-ethylpyridine-4-carbothioamide], the “proliferation rate according to treatment time” value in test [1] (10 uM or 100 uM ethionamide, treated for 72 hours, FIG. 1B) is recorded as “most significantly enhanced”. Also, the “proliferation rate of the cells according to treatment concentration” value in test [1] (ethionamide at a concentration of 50 uM or more (tested 1 to 500 μM), 72 hours, BrdU absorbance 450 nm, FIG. 1A) is “significantly enhanced”. For the same compound, in test [2] (FIG. 2A), the “expression of positive markers CD44, CD73, CD90, CD105, CD166” value was “expressed at a similar level”. Moreover, in test [2] (FIG. 2B), the “expression of negative markers CD11b, CD14, CD19, CD34, CD45, HLA-DR” value is recorded as “not expressed at a level similar to the control”. In test [3], the “differentiation into adipocytes, osteocytes, and chondrocytes” value is listed as “well differentiated”.
